Source: paper PMC3269340, “Pharmacokinetics of memantine in rats and mice” (PLoS Currents, 2012)
Like-named read-outs stand apart in the source and are kept apart here.

Experiment: Pharmacokinetics in rats after single iv, po or sc dose (plasma and brain)
Format: in vivo, Sprague-Dawley rats
Details: male, Sprague-Dawley; for Kp: brain/plasma, read-out: Ratio of Brain-to-Plasma AUC(0-∞); for Vd: read-out: Volume of Distribution at Steady State (Vdss); for bioavailability: read-out: Bioavailability (F); for AUC(0-inf): read-out: AUC(0-∞); for Cmax: read-out: Observed Cmax
Method: Sprague Dawley (SD) rats (138 adult males), and C57Bl/6 mice (140 adult males), were obtained (Hilltop Laboratories, Scottsdale, PA); 123 per species were used in the study and the remainder provided blank matrix. Animals were individually identified by tail markings and were acclimated to the study environment for 16-21 days prior to dose administration. Animals were individually housed in suspended wire caging, and were kept on a 12h/12h light/dark cycle except when interrupted for study procedures. Average room temperature was regulated in the range 18 to 29°C, average relative humidity of 30-70%, and an average daily airflow >10 fresh air changes/h. Animals were fed LabDiet^Ò Certified Rodent Diet 5002 Meal food ad libitum, except during fasting prior to dose administration, and had access to water ad libitum.
[…] […] The concentration of memantine for the same dose level administered to mice was 0.2 mg eq./mL, and the dose volume was 5 mL/kg. The concentration of memantine in the 10mg eq./kg po and sc solutions was 5 mg eq./mL and the dose volume was 2 mL/kg for both rats and mice.
Details of the dose administration, body weights, clinical observations, plasma and brain sample collection and preparation are not shown in this report but are available upon request. Blood (for preparation of plasma) and brain samples were collected at 0.08, 0.25, 0.5, 1, 2, 4, 8, and 24h post-dose.
Since all time points were terminal, mean memantine concentrations per time point were used to calculate the composite PK parameters by non-compartmental analysis using WinNonlin program, version 5.2 (Pharsight Corp., Mountain View, California). A model was selected based on the vascular (iv bolus) or extravascular (po or sc) routes of administration. For the iv route, plasma concentration at time zero was back extrapolated from the first two observed post dose plasma concentrations. For the po and sc routes, concentration at time zero was assumed to be zero. Plasma and tissue concentrations below the limit of quantitation were treated as absent samples for the purpose of calculating the mean plasma concentration values or for calculating PK parameters.
The area under the plasma concentration versus time curve (AUC) was calculated using the linear trapezoidal method (linear interpolation). When appropriate, the terminal elimination phase of the PK profile was estimated based on the best fit (r^2) using at least the last three observed concentrations. PK parameters describing the systemic exposure of memantine in plasma and brain were estimated from observed (rather than predicted) plasma/brain concentrations, the dosing regimen, the AUC, and the terminal elimination phase rate constant (kel) for each group. The portion of the AUC from the last measurable concentration to infinity was estimated from the equation Ct/kel, where Ct represents the last measurable concentration. The extrapolated portion of the AUC was used for the determination of AUC0-∞. The percent bioavailability (%F) was calculated by dividing the dose normalized extravascular plasma AUC0-∞ by the dose normalized iv plasma AUC0-∞ times 100. The bioavailability calculations assumed concentrations were in the linear range.
Concentrations of memantine in rat and mouse plasma and brain were determined using an LC-MS/MS assay developed at ABC Laboratories.

[1] = rat, brain, iv, 1.22 mg/kg, rat brain, IV 1.22 mg eq./kg
[2] = rat, brain, po, 1.22 mg/kg, rat brain, PO 1.22 mg eq./kg
[3] = rat, brain, po, 10 mg/kg, rat brain, PO 10.0 mg eq./kg
[4] = rat, brain, sc, 1 mg/kg, rat brain, SC 1.0 mg eq./kg
[5] = rat, brain, sc, 10 mg/kg, rat brain, SC 10.0 mg eq./kg

Compound CC12CC3CC(C)(C1)CC(N)(C3)C2 [memantine] has an AUC(0-t) (1 mg/kg, rat brain, SC 1.0 mg eq./kg) of 48 µM·h, a Tmax (1 mg/kg, rat brain, SC 1.0 mg eq./kg, read-out: Observed Tmax) of 0.5 h and an AUC(0-t) (1 mg/kg, rat plasma, SC 1.0 mg eq./kg) of 1.62 µM·h. It also gave a Tmax (1 mg/kg, rat plasma, SC 1.0 mg eq./kg, read-out: Observed Tmax) of 0.25 h, an AUC(0-t) (1.22 mg/kg, rat brain, IV 1.22 mg eq./kg) of 43 µM·h and a Tmax (1.22 mg/kg, rat brain, IV 1.22 mg eq./kg, read-out: Observed Tmax) of 0.5 h. It also gave an AUC(0-t) (1.22 mg/kg, rat brain, PO 1.22 mg eq./kg) of 13.1 µM·h, a Tmax (1.22 mg/kg, rat brain, PO 1.22 mg eq./kg, read-out: Observed Tmax) of 2 h and an AUC(0-t) (1.22 mg/kg, rat plasma, IV 1.22 mg eq./kg) of 1.57 µM·h. It also gave an MRT inf (1.22 mg/kg, rat plasma, IV 1.22 mg eq./kg, read-out: Mean Residency Time (MRT0-∞)) of 2.08 h, an AUC(0-t) (1.22 mg/kg, rat plasma, PO 1.22 mg eq./kg) of 0.541 µM·h and a Tmax (1.22 mg/kg, rat plasma, PO 1.22 mg eq./kg, read-out: Observed Tmax) of 1 h. For the same compound, the AUC(0-t) (10 mg/kg, rat brain, PO 10.0 mg eq./kg) was 254 µM·h, the Tmax (10 mg/kg, rat brain, PO 10.0 mg eq./kg, read-out: Observed Tmax) was 2 h and the AUC(0-t) (10 mg/kg, rat brain, SC 10.0 mg eq./kg) was 441 µM·h. The Tmax (10 mg/kg, rat brain, SC 10.0 mg eq./kg, read-out: Observed Tmax) was 1 h, the AUC(0-t) (10 mg/kg, rat plasma, PO 10.0 mg eq./kg) was 11.2 µM·h and the Tmax (10 mg/kg, rat plasma, PO 10.0 mg eq./kg, read-out: Observed Tmax) was 0.5 h. The AUC(0-t) (10 mg/kg, rat plasma, SC 10.0 mg eq./kg) was 25.8 µM·h, the Tmax (10 mg/kg, rat plasma, SC 10.0 mg eq./kg, read-out: Observed Tmax) was 0.5 h and the Kp (rat, IV 1.22 mg eq./kg) was 29.1. The Kp (rat, PO 1.22 mg eq./kg) was 35.6, the Kp (rat, PO 10.0 mg eq./kg) was 22.5 and the Kp (rat, SC 1.0 mg eq./kg) was 31.4. For the same compound, the Kp (rat, SC 10.0 mg eq./kg) was 17.1, the clearance (plasma, 1.22 mg/kg, rat, IV 1.22 mg eq./kg, read-out: Plasma Clearance (CLp) (converted)) was 69.2 mL/min/kg and the Vd (plasma, 1.22 mg/kg, rat, IV 1.22 mg eq./kg) was 8.62 L/kg. For the same compound, the bioavailability (plasma, 1.22 mg/kg, rat, PO 1.22 mg eq./kg) was 36.3%, the bioavailability (plasma, 10 mg/kg, rat, PO 10.0 mg eq./kg) was 84.9% and the concentration at 24 h (plasma, oral, rat, dose 10 mg/kg, single dose in solution, read-out: C min) was 0.03 µM. The Tmax (plasma, po, rat, dose 1 mg/kg, cross-species summary, read-out: T max) was 1 h, the Vd (plasma, rat, IV 1.22 mg eq./kg) was 8 to 9 L/kg and the bioavailability (plasma, rat, PO 1.22 mg eq./kg) was 36%. For the same compound, the Tmax (plasma, rat, dose 10 mg/kg, cross-species summary, read-out: T max) was 0.5 to 1 h, the AUC(0-inf) [1] was 47.6 µM·h and the half-life (rat, brain, iv, 1.22 mg/kg, rat brain, IV 1.22 mg eq./kg, read-out: Half-life (t½) (converted)) was 2.28 h. The Cmax [1] was 11 µM, the half-life (rat, brain, oral, subcutaneous, summary for rats and mice, rat, read-out: brain elimination half-lives after extravascular administrations) was 2.3 to 3.8 h and the half-life (rat, brain, po, 1.22 mg/kg, rat brain, PO 1.22 mg eq./kg, estimated using the LOQ for the 24 hr concentration, large imprecision, read-out: Half-life (t½) (converted)) was < 2.54 h. The AUC(0-inf) [2] was 21.1 µM·h, the Cmax [2] was 2.17 µM and the AUC(0-inf) [3] was 256 µM·h. The half-life (rat, brain, po, 10 mg/kg, rat brain, PO 10.0 mg eq./kg, read-out: Half-life (t½) (converted)) was 3.7 h, the Cmax [3] was 25.4 µM and the AUC(0-inf) [4] was 53 µM·h. It also gave a half-life (rat, brain, sc, 1 mg/kg, rat brain, SC 1.0 mg eq./kg, read-out: Half-life (t½) (converted)) of 2.51 h, a Cmax [4] of 10.6 µM and an AUC(0-inf) [5] of 442 µM·h. The half-life (rat, brain, sc, 10 mg/kg, rat brain, SC 10.0 mg eq./kg, read-out: Half-life (t½) (converted)) was 2.65 h, the Cmax [5] was 75.4 µM and the half-life (rat, plasma, intravenous, oral, subcutaneous, rat, all dose routes and levels (plasma; b142 also brain), read-out: elimination half-life) was 3 to 4 h.
